The record followed here is ChEMBL document CHEMBL4196183, “Discovery of New Allosteric Modulators of the Urotensinergic System through Substitution of the Urotensin II-Related Peptide (URP) Phenylalanine Residue” (J Med Chem, 2018).

The target of assay [1] is T1, Urotensin-2 receptor (Rattus norvegicus, UniProt P49684).
T1 sequence (P49684 whole entry): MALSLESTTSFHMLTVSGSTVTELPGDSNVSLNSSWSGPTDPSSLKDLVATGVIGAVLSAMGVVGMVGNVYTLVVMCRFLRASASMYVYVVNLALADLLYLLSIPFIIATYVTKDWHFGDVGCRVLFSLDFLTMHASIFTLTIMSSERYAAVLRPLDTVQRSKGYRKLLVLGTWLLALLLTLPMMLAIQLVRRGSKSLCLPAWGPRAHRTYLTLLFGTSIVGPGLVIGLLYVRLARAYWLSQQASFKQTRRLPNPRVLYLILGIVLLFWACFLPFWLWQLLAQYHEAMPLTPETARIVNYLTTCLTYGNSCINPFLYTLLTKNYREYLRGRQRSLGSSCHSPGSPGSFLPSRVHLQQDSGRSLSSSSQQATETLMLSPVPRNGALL
The experiment in a line: Agonist activity at UT receptor in Sprague-Dawley rat thoracic aortic ring assessed as induction of contraction. It counts as functional.

For assay [2], the target named is T2, Urotensin-2 receptor (Homo sapiens, UniProt Q9UKP6).
T2 sequence (Q9UKP6 whole entry): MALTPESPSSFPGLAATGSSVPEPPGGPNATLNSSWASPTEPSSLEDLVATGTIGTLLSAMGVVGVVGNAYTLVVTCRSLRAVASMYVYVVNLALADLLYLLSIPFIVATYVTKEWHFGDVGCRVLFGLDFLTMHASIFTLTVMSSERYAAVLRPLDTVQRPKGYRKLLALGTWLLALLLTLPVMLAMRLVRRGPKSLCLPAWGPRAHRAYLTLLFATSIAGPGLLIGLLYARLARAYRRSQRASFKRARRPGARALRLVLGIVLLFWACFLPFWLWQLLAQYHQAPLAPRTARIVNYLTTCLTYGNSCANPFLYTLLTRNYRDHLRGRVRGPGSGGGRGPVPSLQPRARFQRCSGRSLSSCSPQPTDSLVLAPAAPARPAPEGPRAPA
The experiment in a line: Agonist activity at human UT receptor expressed in HEK293 cells co-expressing beta-arrestin1-polycistronic BRET biosensor assessed as induction of beta-arrestin1 recruitment measured for 5 mins by luminescence detection based BRET assay. It counts as functional, cell-based.

The target in assay [3] is T2, Urotensin-2 receptor. The experiment in a line: Agonist activity at human UT receptor expressed in HEK293 cells co-expressing Gq-polycistronic BRET biosensor assessed as induction of Gq activation measured for 5 mins by luminescence detection based BRET assay. It counts as functional, cell-based.
Assay [4] concerns the target T2, Urotensin-2 receptor. The experiment in a line: Agonist activity at human UT receptor expressed in HEK293 cells co-expressing G12-polycistronic BRET biosensor assessed as induction of G12 activation measured for 5 mins by luminescence detection based BRET assay. It counts as functional, cell-based.
The target of assay [5] is T2, Urotensin-2 receptor. The experiment in a line: Displacement of [Na125I]-synthetic URP from human UT receptor expressed in HEK293 cell membranes incubated for 2 hrs by gamma-counting.

For `CC(C)[C@H](NC(=O)[C@@H]1CSSC[C@H](NC(=O)[C@H](C)N)C(=O)N[C@H](Cc2ccc(I)cc2)C(=O)N[C@@H](Cc2c[nH]c3ccccc23)C(=O)N[C@@H](CCCCN)C(=O)N[C@@H](Cc2ccc(O)cc2)C(=O)N1)C(=O)O`, the EC50 on Urotensin-2 receptor [1] is 13.8 nM; at Urotensin-2 receptor [2], 355 nM; at Urotensin-2 receptor [3] it was 53.7 nM; at Urotensin-2 receptor [4] it was 89.1 nM. On Urotensin-2 receptor [5], this molecule showed an IC50 greater than 1000 nM.
The corresponding values for `CC(C)[C@H](NC(=O)[C@@H]1CSSC[C@H](NC(=O)[C@H](C)N)C(=O)N[C@H](Cc2ccc(C#Cc3ccccc3)cc2)C(=O)N[C@@H](Cc2c[nH]c3ccccc23)C(=O)N[C@@H](CCCCN)C(=O)N[C@@H](Cc2ccc(O)cc2)C(=O)N1)C(=O)O` are 1.35 nM, 3310 nM, 617 nM, 380 nM and greater than 1000 nM.
The corresponding values for `CC(C)[C@H](NC(=O)[C@@H]1CSSC[C@H](NC(=O)[C@@H](N)CC(=O)O)C(=O)N[C@H](Cc2ccc(I)cc2)C(=O)N[C@@H](Cc2c[nH]c3ccccc23)C(=O)N[C@@H](CCCCN)C(=O)N[C@@H](Cc2ccc(O)cc2)C(=O)N1)C(=O)O` are greater than 10000 nM, 347 nM, 46.8 nM, 123 nM and greater than 1000 nM.
For `CC(C)[C@H](NC(=O)[C@@H]1CSSC[C@H](NC(=O)[C@H](C)N)C(=O)N[C@H](Cc2ccc(-c3ccccc3)cc2)C(=O)N[C@@H](Cc2c[nH]c3ccccc23)C(=O)N[C@@H](CCCCN)C(=O)N[C@@H](Cc2ccc(O)cc2)C(=O)N1)C(=O)O` the same measures were 1.91 nM, 1150 nM, 3550 nM, 661 nM and greater than 1000 nM.
